# Test results as given in ChEMBL document CHEMBL1201862, “PubChem BioAssay data set” (2004).
# Activity calls are given as the source filed them. For most assays here, no stated cut-off is given here; in the data, actives have a measured EC50 and inactives only a lower limit.
# Tests used:
# [1] = A cytotoxicity screen of small molecule inhibitors of the PhoP region in Salmonella typhi identified in the primary screen. [Related pubchem assays: 1850, 1864, 1985 ]; type: functional
# [2] = M. tuberculosis H37Rv growth inhibitors, H37Rv strain (AID 1626); type: functional
# [3] = biological target: T1, Replicative DNA helicase DnaB (Mycobacterium tuberculosis, UniProt P9WMR3); experiment: DnaB intein splicing inhibitors, dose response, biochemical, cell-free fluorescence (AID 449749); type: functional
# T1 sequence (P9WMR3 whole entry): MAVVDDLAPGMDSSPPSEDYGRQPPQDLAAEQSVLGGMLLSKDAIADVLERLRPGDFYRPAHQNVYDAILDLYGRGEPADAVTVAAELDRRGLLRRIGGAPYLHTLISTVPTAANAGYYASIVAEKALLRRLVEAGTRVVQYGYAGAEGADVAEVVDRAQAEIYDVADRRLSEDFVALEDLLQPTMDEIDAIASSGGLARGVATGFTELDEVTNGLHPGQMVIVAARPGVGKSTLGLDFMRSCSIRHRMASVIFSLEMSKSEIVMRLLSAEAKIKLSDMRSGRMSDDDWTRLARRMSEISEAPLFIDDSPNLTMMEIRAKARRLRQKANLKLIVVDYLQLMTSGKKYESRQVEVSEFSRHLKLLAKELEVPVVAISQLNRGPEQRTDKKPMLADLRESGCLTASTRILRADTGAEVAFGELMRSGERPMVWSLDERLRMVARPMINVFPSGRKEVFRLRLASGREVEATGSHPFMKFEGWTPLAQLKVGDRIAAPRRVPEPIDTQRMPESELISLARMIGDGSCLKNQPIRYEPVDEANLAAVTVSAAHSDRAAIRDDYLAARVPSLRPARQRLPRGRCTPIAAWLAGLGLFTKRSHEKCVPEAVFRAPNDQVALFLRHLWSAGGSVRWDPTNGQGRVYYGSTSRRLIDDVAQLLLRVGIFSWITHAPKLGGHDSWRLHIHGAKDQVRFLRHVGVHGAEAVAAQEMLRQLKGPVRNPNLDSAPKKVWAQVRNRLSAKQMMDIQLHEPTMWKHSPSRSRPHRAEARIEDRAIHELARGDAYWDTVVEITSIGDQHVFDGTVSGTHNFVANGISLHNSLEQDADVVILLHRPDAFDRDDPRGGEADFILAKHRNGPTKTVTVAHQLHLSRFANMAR
# Protein RecA = biological target: T2, Protein RecA (Mycobacterium tuberculosis, UniProt P9WHJ3); experiment: Fluorescence Cell-Free Homogeneous Dose Retest to Identify Inhibitors of RecA-Intein Splicing Activity. [Related pubchem assays (depositor defined):AID2097, AID2223, AID489010, AID492950]; type: functional
# T2 sequence (P9WHJ3 whole entry): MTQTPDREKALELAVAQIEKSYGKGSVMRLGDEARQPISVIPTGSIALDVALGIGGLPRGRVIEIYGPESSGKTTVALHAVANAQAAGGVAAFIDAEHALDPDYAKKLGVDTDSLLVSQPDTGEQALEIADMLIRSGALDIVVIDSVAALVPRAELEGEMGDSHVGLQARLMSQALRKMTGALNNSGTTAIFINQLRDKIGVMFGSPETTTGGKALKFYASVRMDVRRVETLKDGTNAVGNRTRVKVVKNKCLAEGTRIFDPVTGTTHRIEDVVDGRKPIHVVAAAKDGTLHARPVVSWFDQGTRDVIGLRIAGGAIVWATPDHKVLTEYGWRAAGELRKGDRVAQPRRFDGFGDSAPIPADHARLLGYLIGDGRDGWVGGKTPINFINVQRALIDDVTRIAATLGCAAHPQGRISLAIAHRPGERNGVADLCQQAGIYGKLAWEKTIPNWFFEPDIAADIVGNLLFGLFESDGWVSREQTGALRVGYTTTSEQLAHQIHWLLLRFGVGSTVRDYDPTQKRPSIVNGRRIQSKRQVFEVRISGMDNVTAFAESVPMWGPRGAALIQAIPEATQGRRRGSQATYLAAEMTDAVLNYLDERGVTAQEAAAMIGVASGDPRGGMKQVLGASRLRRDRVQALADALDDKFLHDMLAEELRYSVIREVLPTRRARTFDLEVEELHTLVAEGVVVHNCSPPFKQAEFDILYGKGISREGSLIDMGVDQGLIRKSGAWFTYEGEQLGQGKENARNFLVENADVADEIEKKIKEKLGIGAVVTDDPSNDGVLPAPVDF
# [4] = luciferase reporter signal suppression in cells – H4 neuroglioma cells, luminescence, dose response (AID 1990); type: functional, cell-based
# [5] = biological target: Luciferin 4-monooxygenase (Photinus pyralis, UniProt P08659); experiment: inhibition of purified Photinus pyralis luciferase – biochemical, luminescence, dose response (AID 1891)
# Chain of Luciferin 4-monooxygenase (P08659 whole entry): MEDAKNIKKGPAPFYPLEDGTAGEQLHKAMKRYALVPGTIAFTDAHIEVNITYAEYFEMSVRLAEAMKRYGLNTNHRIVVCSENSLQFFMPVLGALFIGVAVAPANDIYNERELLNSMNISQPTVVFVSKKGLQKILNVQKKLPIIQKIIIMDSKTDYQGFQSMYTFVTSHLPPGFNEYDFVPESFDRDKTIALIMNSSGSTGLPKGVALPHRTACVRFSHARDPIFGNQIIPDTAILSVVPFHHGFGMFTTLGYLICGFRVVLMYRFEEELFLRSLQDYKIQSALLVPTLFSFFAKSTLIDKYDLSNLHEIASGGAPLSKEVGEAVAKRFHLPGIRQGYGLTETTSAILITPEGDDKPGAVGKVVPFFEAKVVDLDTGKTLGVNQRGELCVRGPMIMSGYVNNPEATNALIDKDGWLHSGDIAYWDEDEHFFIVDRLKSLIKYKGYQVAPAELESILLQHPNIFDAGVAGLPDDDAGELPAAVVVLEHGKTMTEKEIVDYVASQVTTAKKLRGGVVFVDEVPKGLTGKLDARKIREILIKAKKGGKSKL
# Jurkat = experiment: blockers of NF-kB activation in T cells – Jurkat, luciferase reporter, luminescence, B- and T-cell, dose response (AID 489004); type: functional, cell-based; settings: Homo sapiens;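 further: NF-kB luciferase reporter Jurkat cells stimulated with PMA plus ionomycin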
# cells [6] = type: functional, cell-based
# [7] = Luminescence Cell-Based Dose Response HTS to Identify Inhibitors of 5'UTR Stem-Loop Driven Prion Protein mRNA Translation in H4 Neuroglioblastoma Cells. [Related pubchem assays: 1827 (Project Summary), 1813 (Primary HTS)]; type: functional
# cells [8] = experiment: cells
# [9] = general cell-killing toxicity readout – plate reader, dry powder samples, cytotoxicity control for PAX8 inhibitor project, dose response (AID 743021); type: functional, cell-based
# [10] = alpha-synuclein stem-loop luciferase translation blockers – H4 neuroglioma cells, luminescence, confirmation (AID 1988); type: functional, cell-based
# BJ [11] = experiment: BJ-TERT fibroblast viability loss – cell-based, RAS-independent, luminescence, dose response (AID 1933); type: functional; settings: Homo sapiens
# [12] = luciferase reporter signal reduction – luminescence, H4-C neuroglioblastoma cells, dose response (AID 2458); type: functional, cell-based;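 further: H4 neuroglioblastoma cells stably carrying a luciferase reporter gene fusion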
# [13] = DRD fibroblast viability loss – cell-based, non-viral oncogenic, luminescence, dose response (AID 1934); type: functional; settings: Homo sapiens
# BJ [14] = experiment: cells; type: functional, cell-based; settings: Homo sapiens
# [15] = HEK-293T viability loss, compound-treated – cell-based, uHTS hits, cytotoxicity control for B/T-cell NF-kB inhibitor project, dose response (AID 489019); type: functional;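 further: IC50 reflects cytotoxicity as loss of cell viability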
# [16] = loss of viability in HepG2 cells – cell-based, CellTiter-Glo, cherry-picked, cytotoxicity control for Shn3 inhibitor project, dose response (AID 624134); type: functional
# BJ [17] = experiment: BJ-TERT-LT-ST fibroblast viability loss – cell-based, RAS-independent, luminescence, dose response (AID 1935); type: functional; settings: Homo sapiens;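 further: BJ fibroblasts immortalized with TERT plus LT and ST oncogenes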
# [18] = reduction of Shn3 3'UTR-driven luciferase in osteoblasts – cell-based, Clone20 osteoblasts, firefly luciferase, cherry-picked, dose response (AID 624132); type: functional;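 further: firefly luciferase luminescence from reporter carrying the Shn3 3'UTR in osteoblasts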
# Paired box protein Pax-8 = Paired box protein Pax-8 (Homo sapiens, UniProt Q06710); experiment: PAX8 transcriptional activity inhibition in RMG-I – RMG-I cells, luciferase, cherry-pick, dose response (AID 687027); type: functional, cell-based;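 further: luciferase reporter driven by Pax8 target thyroperoxidase promoter measured by SteadyGlo luminescence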
# Chain of Paired box protein Pax-8 (Q06710 whole entry): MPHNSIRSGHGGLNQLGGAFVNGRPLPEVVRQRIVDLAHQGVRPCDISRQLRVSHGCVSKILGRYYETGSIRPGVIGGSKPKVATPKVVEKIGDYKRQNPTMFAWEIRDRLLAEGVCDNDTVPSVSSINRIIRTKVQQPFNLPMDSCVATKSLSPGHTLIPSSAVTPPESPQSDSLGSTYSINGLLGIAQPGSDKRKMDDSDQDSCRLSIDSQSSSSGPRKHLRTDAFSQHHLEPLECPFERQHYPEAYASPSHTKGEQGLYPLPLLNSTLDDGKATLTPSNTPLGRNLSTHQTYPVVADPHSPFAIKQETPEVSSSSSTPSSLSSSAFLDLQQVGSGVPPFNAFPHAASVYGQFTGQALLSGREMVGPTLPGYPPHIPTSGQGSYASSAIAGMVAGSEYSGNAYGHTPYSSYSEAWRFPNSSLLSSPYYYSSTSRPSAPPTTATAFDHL
# [19] = Luminescence Cell-Based Dose Confirmation HTS to Identify Inhibitors of Platelet Dense Granule Release. [Related pubchem assays: 1663 (Primary HTS), 1678 (Summary of Project)]; type: functional
# [20] = biological target: T3, Oxysterols receptor LXR-beta (Homo sapiens, UniProt P55055); type: functional, cell-based;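 further: Cell-based luminescence dose-response assay of agonist activity at LXR, run as a confirmatory counterscreen to a daf-12 agonist screen; HEK293 cells with Gal4-LXR fusion and GAL4-driven luciferase reporter; agonist potency from rising luciferase signal of a Gal4-LXR reporter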
# T3 sequence (P55055 whole entry): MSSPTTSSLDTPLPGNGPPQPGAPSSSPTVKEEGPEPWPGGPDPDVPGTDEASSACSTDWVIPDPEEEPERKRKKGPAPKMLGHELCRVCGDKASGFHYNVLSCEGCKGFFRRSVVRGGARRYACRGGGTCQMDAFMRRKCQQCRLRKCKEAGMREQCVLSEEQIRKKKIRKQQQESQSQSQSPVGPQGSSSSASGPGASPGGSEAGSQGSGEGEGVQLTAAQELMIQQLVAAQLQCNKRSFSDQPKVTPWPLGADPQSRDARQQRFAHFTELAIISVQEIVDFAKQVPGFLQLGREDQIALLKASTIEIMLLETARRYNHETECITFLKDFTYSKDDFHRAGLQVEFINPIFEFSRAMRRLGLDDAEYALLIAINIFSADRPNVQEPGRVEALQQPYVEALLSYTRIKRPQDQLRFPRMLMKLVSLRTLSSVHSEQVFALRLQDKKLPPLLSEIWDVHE
# [21] = alpha-synuclein stem-loop translation blockers – luminescence, H4 neuroglioblastoma cells, dose confirmation, confirmation (AID 2454); type: functional, cell-based;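 further: H4 neuroglioblastoma cells carrying an alpha-synuclein 5'UTR luciferase reporter; potency for inhibition of the luciferase signal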
smiles,measurement,setting,value
CC(C)Cc1c(O)nc(SCC(=O)Nc2ccc3c(c2)CCC3)nc1O,EC50,[1],> 50 µM (active)
same,IC50,[2],> 100 µM (active)
COc1ccc(C2C(C#N)=C(N)Oc3[nH]nc(C)c32)cc1CSc1ccccn1 (stereo not given),EC50,[1],> 50 µM (active)
same,AC50,[3],9.71 µM (active)
same,EC50,Protein RecA,6.32 µM (active)
O=C(Nc1ccc([N+](=O)[O-])cc1)C(=O)Nc1cccc(C(=O)O)c1,EC50,[4],< 0.1 µM (active)
same,EC50,[5],0.984 µM (active)
same,IC50,Jurkat,1.57 µM (active)
same,EC50,cells [6],> 12 µM (inconclusive)
same,EC50,[7],< 0.1 µM (active)
same,EC50,cells [8],> 67.5 µM (inactive)
same,AC50,[9],5.98 µM (active)
same,EC50,[10],< 0.1 µM (active)
same,EC50,BJ [11],16.2 µM (active)
same,EC50,[12],0.126 µM (active)
same,EC50,[13],8.07 µM (active)
same,EC50,BJ [14],7.23 µM (active)
same,IC50,[15],> 80 µM (inactive)
same,AC50,[16],56.2 µM (active)
same,EC50,BJ [17],> 75 µM (inconclusive)
same,AC50,[18],4.21 µM (active)
same,AC50,Paired box protein Pax-8,5 µM (active)
same,EC50,[19],2.09 µM (active)
same,EC50,[20],> 67.5 µM (inactive)
same,EC50,[21],0.115 µM (active)
